Converted amounts (≈) assume the structure as drawn.
System: Candida albicans (ATCC GDH2346)
Assay: Fungus MIC assay (CLSI C27-A3)
Assay type: cell-based
Details: Candida albicans; RPMI/MOPS pH 7.0, 35 °C, 48 h
Method: (§1) Fungal strains included a clinical isolate of Candida albicans (ATCC GDH2346), Aspergillus fumigatus (ATCC MYA-3626), and Aspergillus flavus (ATCC 204304). Minimum inhibitory concentration (MIC) assays were carried out in 96-well plates using the Clinical and Laboratory Standards Institute (CLSI) method C27-A3 for C. albicans and M38-A2 for Aspergillus species. smHDPMs, each in stock solutions of 10 mM in DMSO, were diluted in 50 µL RPMI/MOPS pH 7.0 in a 96-well plate and 50 µL of diluted yeast were added to each well. […] The plate was then incubated at 35 °C for 48 h. […] All MIC assays were performed in duplicate.

| SMILES | MIC |
| --- | --- |
| Cc1cc(C#CCNC(=N)N)ccc1-c1nnc(-c2ccc(C#CCNC(=N)N)cc2)o1 [Compound 1] | 0.78 to 1.56 µg/mL (≈ 1.83 to 3.66 µM) |
| c1cc(-c2ccc(N3CCNCC3)cc2)cc(-c2ccc(N3CCNCC3)cc2)n1 [Compound 5] | > 100 µg/mL |

System: Aspergillus flavus (ATCC 204304)
Assay: Fungus MIC assay (CLSI M38-A2)
Assay type: cell-based
Details: Aspergillus flavus, ATCC204304; RPMI/MOPS pH 7.0, 35 °C, 48 h
Method: as §1

| SMILES | MIC |
| --- | --- |
| Cc1cc(C#CCNC(=N)N)ccc1-c1nnc(-c2ccc(C#CCNC(=N)N)cc2)o1 [Compound 1] | 6.25 µg/mL (≈ 14.7 µM) |
| c1cc(-c2ccc(N3CCNCC3)cc2)cc(-c2ccc(N3CCNCC3)cc2)n1 [Compound 5] | > 100 µg/mL |

System: Aspergillus fumigatus (ATCC MYA-3626)
Assay: Fungus MIC assay (CLSI M38-A2)
Assay type: cell-based
Details: Aspergillus fumigatus; RPMI/MOPS pH 7.0, 35 °C, 48 h
Method: as §1

| SMILES | MIC |
| --- | --- |
| Cc1cc(C#CCNC(=N)N)ccc1-c1nnc(-c2ccc(C#CCNC(=N)N)cc2)o1 [Compound 1] | 12.5 to 50 µg/mL (≈ 29.3 to 117 µM) |
| c1cc(-c2ccc(N3CCNCC3)cc2)cc(-c2ccc(N3CCNCC3)cc2)n1 [Compound 5] | > 100 µg/mL |

Same assay, conditions: RPMI/MOPS pH 7.0, 35 °C, 48 h

| SMILES | MIC A. fumigatus |
| --- | --- |
| Cc1cc(C#CCNC(=N)N)ccc1-c1nnc(-c2ccc(C#CCNC(=N)N)cc2)o1 [Compound 1] | 12.5 to 50 µg/mL |

System: Enterococcus faecalis [ATCC 29212]
Assay: Bacterial MIC assay (Hancock modified broth assay)
Assay type: cell-based
Details: ATCC29212, cation-adjusted Mueller–Hinton, 18 h
Method: (§2) were tested for antibacterial activities against three Gram-negative bacteria (Escherichia coli [ATCC 25922], Pseudomonas aeruginosa [ATCC 10145], and Klebsiella pneumonia [ATCC 13883]) and two Gram-positive bacteria (Staphylococcus aureus [ATCC 27660] and Enterococcus faecalis [ATCC 29212]) using the Hancock modified broth assay. Three milliliters cation-adjusted Mueller-Hinton medium was inoculated with 20 μL of frozen bacterial stock and incubated at 37 °C on a shaker platform (250 rpm) overnight. […] All samples were done in duplicate. One set of control wells included broth-only samples with dilution buffer for testing sterility and providing blank values for the assay readings. Vehicle-control wells containing the bacterial suspension with DMSO (no compound) were also included. Following the overnight incubation (18 h), the cell growth was assessed by observing the presence of “acceptable growth”, defined by CLSI as a ≥2 mm button or definite turbidity. MIC was defined as the lowest concentration where acceptable growth is not observed.

| SMILES | MIC |
| --- | --- |
| c1cc(-c2ccc(N3CCNCC3)cc2)cc(-c2ccc(N3CCNCC3)cc2)n1 [Compound 5] | > 100 µg/mL |

System: Escherichia coli [ATCC 25922]
Assay: Bacterial MIC assay (Hancock modified broth assay)
Assay type: cell-based
Details: Escherichia coli, ATCC25922; cation-adjusted Mueller–Hinton, 18 h
Method: as §2

| SMILES | MIC |
| --- | --- |
| c1cc(-c2ccc(N3CCNCC3)cc2)cc(-c2ccc(N3CCNCC3)cc2)n1 [Compound 5] | > 100 µg/mL |

System: Klebsiella pneumonia [ATCC 13883]
Assay: Bacterial MIC assay (Hancock modified broth assay)
Assay type: cell-based
Details: Klebsiella pneumoniae, ATCC13883; cation-adjusted Mueller–Hinton, 18 h
Method: as §2

| SMILES | MIC |
| --- | --- |
| c1cc(-c2ccc(N3CCNCC3)cc2)cc(-c2ccc(N3CCNCC3)cc2)n1 [Compound 5] | > 100 µg/mL |

System: Pseudomonas aeruginosa [ATCC 10145]
Assay: Bacterial MIC assay (Hancock modified broth assay)
Assay type: cell-based
Details: ATCC10145, cation-adjusted Mueller–Hinton, 18 h
Method: as §2

| SMILES | MIC |
| --- | --- |
| c1cc(-c2ccc(N3CCNCC3)cc2)cc(-c2ccc(N3CCNCC3)cc2)n1 [Compound 5] | > 100 µg/mL |

System: Staphylococcus aureus [ATCC 27660]
Assay: Bacterial MIC assay (Hancock modified broth assay)
Assay type: cell-based
Details: Staphylococcus aureus, ATCC27660; cation-adjusted Mueller–Hinton, 18 h
Method: as §2

| SMILES | MIC |
| --- | --- |
| c1cc(-c2ccc(N3CCNCC3)cc2)cc(-c2ccc(N3CCNCC3)cc2)n1 [Compound 5] | > 100 µg/mL |

System: not listed separately
Assay: Cytotoxicity, MTS viability assay
Assay type: cell-based, mouse
Details: mouse, 3T3 fibroblasts (ATCC CRL-1658); 1 h exposure in serum-free medium, MTS
Method: (§3) Cytotoxicity (50% […] concentration, CC50) was determined against mouse 3T3 fibroblasts (ATCC CRL-1658) and human transformed liver HepG2 cells (ATCC HB-8065) using an MTS viability assay according to the manufacturer’s protocol (Promega CellTiter 96 aqueous nonradioactive cell proliferation assay). Briefly, 3T3 cells were seeded at 2 × 10^4 cells/well in Dulbecco’s modified Eagle’s medium (DMEM) supplemented with 10% bovine calf serum and HepG2 cells were seeded at 3 × 10^4 cells/well in MEM supplemented with 10% fetal bovine serum. After 24 h of growth, the culture medium was replaced with medium lacking serum, and eight two-folds dilutions of each of the five compounds were added. […] Following incubation for 1 h at 37 °C, compound solutions were removed and medium containing serum was replenished. Viability was determined by addition of the tetrazolium compound, MTS, and the electron coupling agent, PMS, and then incubation at 37 °C for 2 h (3T3 cells) or 3 h (HepG2 cells) followed by absorbance measurements at 490 nm. The CC50 was calculated using GraphPad Prism software (nonlinear fit).

| SMILES | CC50 at 1 h |
| --- | --- |
| Cc1cc(C#CCNC(=N)N)ccc1-c1nnc(-c2ccc(C#CCNC(=N)N)cc2)o1 [Compound 1] | 209 µM |
| c1cc(-c2ccc(N3CCNCC3)cc2)cc(-c2ccc(N3CCNCC3)cc2)n1 [Compound 5] | 200 µM |

System: mouse 3T3 fibroblasts (ATCC CRL-1658)
Assay: Cytotoxicity, MTS viability assay
Assay type: cell-based
Details: not given
Method: as §3

| SMILES | cytotoxic effects on 3T3 cells at concentrations relevant for antifungal activity |
| --- | --- |
| Cc1cc(C#CCNC(=N)N)ccc1-c1nnc(-c2ccc(C#CCNC(=N)N)cc2)o1 [Compound 1] | little to no cytotoxic effects |

Same assay, conditions: CC50 in 3T3 and HepG2 cells relative to Compound 2

| SMILES | fold less cytotoxic than Compound 2 |
| --- | --- |
| c1cc(-c2ccc(N3CCNCC3)cc2)cc(-c2ccc(N3CCNCC3)cc2)n1 [Compound 5] | 2–10 fold |

System: not listed separately
Assay: Cytotoxicity, MTS viability assay
Assay type: cell-based, human
Details: human, HepG2 cells (ATCC HB-8065); 1 h exposure in serum-free medium, MTS
Method: as §3

| SMILES | CC50 at 1 h |
| --- | --- |
| Cc1cc(C#CCNC(=N)N)ccc1-c1nnc(-c2ccc(C#CCNC(=N)N)cc2)o1 [Compound 1] | 257 µM |
| c1cc(-c2ccc(N3CCNCC3)cc2)cc(-c2ccc(N3CCNCC3)cc2)n1 [Compound 5] | 447 µM |

System: human transformed liver HepG2 cells (ATCC HB-8065)
Assay: Cytotoxicity, MTS viability assay
Assay type: cell-based
Details: not given
Method: as §3

| SMILES | cytotoxic effects on HepG2 cells at concentrations relevant for antifungal activity |
| --- | --- |
| Cc1cc(C#CCNC(=N)N)ccc1-c1nnc(-c2ccc(C#CCNC(=N)N)cc2)o1 [Compound 1] | little to no cytotoxic effects |

Target: T1, MRGPRX2 (Homo sapiens, UniProt Q96LB1)
T1 construct: HA (hemagglutinin)
T1 sequence (Q96LB1 1-330): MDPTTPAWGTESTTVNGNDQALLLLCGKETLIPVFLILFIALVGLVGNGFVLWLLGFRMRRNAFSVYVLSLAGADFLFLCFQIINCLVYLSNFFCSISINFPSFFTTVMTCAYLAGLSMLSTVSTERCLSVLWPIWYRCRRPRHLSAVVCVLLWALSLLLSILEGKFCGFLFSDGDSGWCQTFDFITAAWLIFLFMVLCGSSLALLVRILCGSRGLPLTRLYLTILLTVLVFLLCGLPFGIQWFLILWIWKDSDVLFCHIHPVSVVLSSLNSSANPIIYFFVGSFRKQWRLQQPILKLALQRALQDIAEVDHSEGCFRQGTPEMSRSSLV
Assay: Degranulation (β-hexosaminidase release) in RBL-2H3 cells expressing MRGPRX2
Assay type: cell-based
Details: 3 µM, 30 min, RBL-2H3 cells stably expressing MRGPRX2
Method: The human mast cell line, LAD2, was maintained in complete StemPro-34 medium supplemented with L-glutamine (2 mM), penicillin (100 IU/mL), streptomycin (100 μg/mL), and 100 ng/mL recombinant human stem cell factor (rhSCF). Hemidepletions were performed weekly with media containing rhSCF (100 ng/mL). Rat basophilic leukemia (RBL-2H3) cells were maintained as monolayer cultures in DMEM supplemented with 10% FBS, L-glutamine (2 mM), penicillin (100 IU/mL), and streptomycin (100 μg/mL). Peritoneal mast cells (PMCs) were obtained from 6–8 weeks old C57BL/6 and Mrgprb2^-/- (C57BL/6 background) mice using i.p. injection of 8 mL MC disassociation medium that was made of HBSS with 3% FCS and 10 mM HEPES. The cells were cultured in Iscove’s Modified Dulbecco’s Medium (IMDM) supplemented with 10% FCS, murine IL-3 (10 ng/mL), and murine SCF (30 ng/mL). After 48 h, the medium and the suspended cells were removed and replaced with fresh medium containing murine IL-3 (10 ng/mL) and murine SCF (30 ng/mL). The floating cells were then used for the experiment within 2–3 weeks. Bone-marrow-derived mast cells (BMMCs) were harvested by flushing bone marrow cells from the femurs of C57BL/6 mice and culturing the cells for 4–8 weeks in IMDM supplemented with 10% FCS, murine IL-3 (10 ng/mL). The cells were then used within 4–8 weeks.
Cells (2 ×10^6) were transfected with plasmids (2 µg/µL) encoding MRGPRX2 or MRGPRX2 missense mutants using the Amaxa kit V using Amaxa Nucleofector device according to the manufacturer’s protocol. For stable transfection, cells were cultured in the presence of G-418 (1 mg/mL) and used within one month of transfection. For transient transfection, cells were used within 16–20 h after transfection. To detect MRGPRX2 expression, cells (1 × 10^6) were incubated with the PE-conjugated anti-MRGPRX2 antibody, washed in FACS buffer, fixed, and analyzed on a BD LSR II flow cytometer.
RBL-2H3 cells (5 × 10^4), LAD2 cells (10 × 10^4), and PMCs (5 × 10^3), BMMCs (5 × 10^4), were seeded into 96-well plates in a total volume of 50 μl HEPES buffer containing 0.1% bovine serum albumin (BSA) and exposed to ligands for 30 min. Cells without treatment were designated as control. In some experiments, cells were treated with Pertussis toxin (PTx). For total β-hexosaminidase release, unstimulated cells were lysed in 50 μl of 0.1% Triton X-100. Aliquots (20 μl) of supernatants or cell lysates were incubated with 20 μl of 1 mM p-nitrophenyl-N-acetyl-β- D-glucosamine for 1 h at 37 °C. The reaction was stopped by adding 250 μl of a 0.1 M Na2CO3/0.1 M NaHCO3 buffer and absorbance was measured at 405 nm.

| SMILES | percentage degranulation (β-hexosaminidase release) |
| --- | --- |
| c1cc(-c2ccc(N3CCNCC3)cc2)cc(-c2ccc(N3CCNCC3)cc2)n1 [Compound 5] | 20–25% |

Same assay, conditions: RBL-2H3 cells stably expressing MRGPRX2, 30 min

| SMILES | EC50 |
| --- | --- |
| Cc1cc(C#CCNC(=N)N)ccc1-c1nnc(-c2ccc(C#CCNC(=N)N)cc2)o1 [Compound 1] | 0.8 µM |
| c1cc(-c2ccc(N3CCNCC3)cc2)cc(-c2ccc(N3CCNCC3)cc2)n1 [Compound 5] | 0.38 µM |

System: methicillin-resistant S. aureus (MRSA)
Assay: not given
Design: method as in PMID 26501484
Details: cited from earlier work

| SMILES | efficacy in rabbit model of MRSA-induced keratitis |
| --- | --- |
| N=C(N)NCCCCC(=O)Nc1cc(C(F)(F)F)cc(NC(=O)c2cc(C(=O)Nc3cc(C(F)(F)F)cc(NC(=O)CCCCNC(=N)N)c3O[C@@H]3CCNC3)ncn2)c1O[C@@H]1CCNC1 [Brilacidin] | displays efficacy |
